Here are results for 31 compounds from patent US10597380B2, “Pyridazinone-based broad spectrum anti-influenza inhibitors” (Hoffmann-La Roche Inc., priority 2017, dated 2020).

The IC50 is the concentration at which inhibition is half-maximal.

This experiment deals with Influenza A/WSN/33-Luciferase virus. Description: microbe, parasite or virus in culture. Format: cell-based. As to conditions: A549, 72 h, luciferase signal three days later, read-out: IC50 antiviral activity (Luciferase reporter assay). On the technique in general: In a reporter assay the amount or activity of a reporter protein is the signal.

For the compound `CCOC(=O)COCCn1cccc(Nc2nn(-c3ccc(OC(F)(F)F)cc3)c(=O)c3ccccc23)c1=O` [Example 5, ethyl 2-[2-[2-oxo-3-[[4-oxo-3-[4-(trifluoromethoxy)phenyl]phthalazin-1-yl]amino]-1-pyridyl]ethoxy]acetate], the IC50 is 485 nM.

In the case of `O=C(O)CCCn1cc(Cl)cc(Nc2nn(-c3ccc(OC(F)(F)F)cc3)c(=O)c3c2CCC3)c1=O` [Example 117, 4-[5-chloro-2-oxo-3-[[4-oxo-3-[4-(trifluoromethoxy)phenyl]-6,7-dihydro-5H-cyclopenta[d]pyridazin-1-yl]amino]-1-pyridyl]butanoic acid], the IC50 is 114 nM.

`CC(C)N1CCc2c(Nc3cccn(C)c3=O)nn(-c3ccc(OC(F)(F)F)cc3)c(=O)c2C1` [Example 159, 6-Isopropyl-1-[(1-methyl-2-oxo-3-pyridyl)amino]-3-[4-(trifluoromethoxy)phenyl]-7,8-dihydro-5H-pyrido[3,4-d]pyridazin-4-one]: the IC50 amounted to 186 nM.

As to `Cn1cccc(Nc2nn(-c3ccc(OC(F)F)cc3)c(=O)c3c2CCCC3)c1=O` [Example 27, 2-[4-(difluoromethoxy)phenyl]-4-[(1-methyl-2-oxo-3-pyridyl)amino]-5,6,7,8-tetrahydrophthalazin-1-one], the IC50 was found to be 41 nM.

Take `Cn1cccc(Nc2nn(-c3ccc(OC(F)(F)F)cc3)c(=O)c3ccc(O)cc23)c1=O` [Example 126, 6-Hydroxy-4-[(1-methyl-2-oxo-3-pyridyl)amino]-2-[4-(trifluoromethoxy)phenyl]phthalazin-1-one]: the IC50 came out at 191 nM.

For the compound `Cn1cccc(Nc2nn(-c3ccc(OC(F)(F)F)cc3)c(=O)c3cc(O)ccc23)c1=O` [Example 125, 7-Hydroxy-4-[(1-methyl-2-oxo-3-pyridyl)amino]-2-[4-(trifluoromethoxy)phenyl]phthalazin-1-one], the IC50 was 88 nM.

Take `CS(=O)(=O)CCn1cccc(Nc2nn(-c3ccc(OC(F)(F)F)cc3)c(=O)c3ccccc23)c1=O` [Example 72, 4-[[1-(2-methylsulfonylethyl)-2-oxo-3-pyridyl]amino]-2-[4-(trifluoromethoxy)phenyl]phthalazin-1-one]: the concentration for half-maximal inhibition (IC50) turned out to be 24 nM.

As for `COc1ccc(-n2nc(Nc3cccn(C)c3=O)c3c(c2=O)CCC3)cc1OC` [Example 172, 3-(3,4-Dimethoxyphenyl)-1-[(1-methyl-2-oxo-3-pyridyl)amino]-6,7-dihydro-5H-cyclopenta[d]pyridazin-4-one], the IC50 turned out to be 3480 nM.

With `COCCCNC(=O)Cn1cccc(Nc2nn(-c3ccc(OC(F)(F)F)cc3)c(=O)c3ccccc23)c1=O` [Example 94, N-(3-methoxypropyl)-2-[2-oxo-3-[[4-oxo-3-[4-(trifluoromethoxy)phenyl]phthalazin-1-yl]amino]-1-pyridyl]acetamide], the IC50 stood at 45 nM.

For `Cn1cccc(Nc2nn(-c3ccc(C(C)(C)C)nc3)c(=O)c3ccccc23)c1=O` [Example 8, 2-(6-tert-butyl-3-pyridyl)-4-[(1-methyl-2-oxo-3-pyridyl)amino]phthalazin-1-one], the IC50 turned out to be 73 nM.

Regarding `CN(C)S(=O)(=O)CCCn1cccc(Nc2nn(-c3ccc(OC(F)(F)F)cc3)c(=O)c3ccccc23)c1=O` [Example 75, N,N-dimethyl-3-[2-oxo-3-[[4-oxo-3-[4-(trifluoromethoxy)phenyl]phthalazin-1-yl]amino]-1-pyridyl]propane-1-sulfonamide], the half-maximal inhibitory concentration (IC50) came to 25 nM.

Consider `O=c1c(Nc2nn(-c3ccc(OC(F)(F)F)cc3)c(=O)c3c2CCC3)cccn1CCN1CC(O)C1` [Example 46, 1-[[1-[2-(3-hydroxyazetidin-1-yl)ethyl]-2-oxo-3-pyridyl]amino]-3-[4-(trifluoromethoxy)phenyl]-6,7-dihydro-5H-cyclopenta[d]pyridazin-4-one], for which the IC50 turned out to be 33 nM.

For the compound `Cn1cccc(Nc2nn(-c3cnc(C(C)(C)C)nc3)c(=O)c3ccccc23)c1=O` [Example 9, 2-(2-tert-butylpyrimidin-5-yl)-4-[(1-methyl-2-oxo-3-pyridyl)amino]phthalazin-1-one], the IC50 was determined as 275 nM.

For `CCc1ccc2c(Nc3cccn(C)c3=O)nn(-c3ccc(C(C)(C)C)cc3)c(=O)c2c1` [Example 20, 2-(4-tert-butylphenyl)-7-ethyl-4-[(1-methyl-2-oxo-3-pyridyl)amino]phthalazin-1-one], the half-maximal inhibitory concentration (IC50) stood at 4 nM.

With `CC(C)(Cn1cccc(Nc2nn(-c3ccc(OC(F)(F)F)cc3)c(=O)c3ccccc23)c1=O)C(N)=O` [Example 101, 2,2-dimethyl-3-[2-oxo-3-[[4-oxo-3-[4-(trifluoromethoxy)phenyl]phthalazin-1-yl]amino]-1-pyridyl]propanamide], the IC50 stood at 109 nM.

Consider `Cn1cccc(Nc2nn(-c3ccc(OC(F)(F)F)cc3)c(=O)c3c2CCC(O)C3)c1=O` (stereo not shown) [Example 164, 7-Hydroxy-4-[(1-methyl-2-oxo-3-pyridyl)amino]-2-[4-(trifluoromethoxy)phenyl]-5,6,7,8-tetrahydrophthalazin-1-one], for which the IC50 is 46 nM.

Consider `CC(C)(Cn1cccc(Nc2nn(-c3ccc(OC(F)(F)F)cc3)c(=O)c3ccccc23)c1=O)C(=O)O` [Example 111, 2,2-dimethyl-3-[2-oxo-3-[[4-oxo-3-[4-(trifluoromethoxy)phenyl]phthalazin-1-yl]amino]-1-pyridyl]propanoic acid], for which the IC50 was 1510 nM.

For the compound `CNC(=O)C(C)(C)Cn1cccc(Nc2nn(-c3ccc(OC(F)(F)F)cc3)c(=O)c3ccccc23)c1=O` [Example 99, N,2,2-trimethyl-3-[2-oxo-3-[[4-oxo-3-[4-(trifluoromethoxy)phenyl]phthalazin-1-yl]amino]-1-pyridyl]propanamide], the IC50 worked out at 291 nM.

Regarding `N[C@H]1CO[C@H](Cn2cccc(Nc3nn(-c4ccc(OC(F)(F)F)cc4)c(=O)c4c3CCC4)c2=O)OC1` [Example 170, trans-1-[[1-[(5-Amino-1,3-dioxan-2-yl)methyl]-2-oxo-3-pyridyl]amino]-3-[4-(trifluoromethoxy)phenyl]-6,7-dihydro-5H-cyclopenta[d]pyridazin-4-one], the IC50 came to 83 nM.

In the case of `Cn1cncc(Nc2nn(-c3ccc(OC(F)(F)F)cc3)c(=O)c3ccccc23)c1=O` [Example 66, 4-[(1-methyl-6-oxo-pyrimidin-5-yl)amino]-2-[4-(trifluoromethoxy)phenyl]phthalazin-1-one], the IC50 was found to be 36 nM.

Take `CC(C)(C)OC(=O)N(CCn1cccc(Nc2nn(-c3ccc(OC(F)(F)F)cc3)c(=O)c3c2CCC3)c1=O)CC(=O)O` [Example 43, 2-[tert-butoxycarbonyl-[2-[2-oxo-3-[[4-oxo-3-[4-(trifluoromethoxy)phenyl]-6,7-dihydro-5H-cyclopenta[d]pyridazin-1-yl]amino]-1-pyridyl]ethyl]amino]acetic acid]: the IC50 was 84 nM.

`CCn1cncc(Nc2nn(-c3ccc(OC(F)(F)F)cc3)c(=O)c3c2CCN(C(C)=O)C3)c1=O` [Example 85, 6-acetyl-1-[(1-ethyl-6-oxo-pyrimidin-5-yl)amino]-3-[4-(trifluoromethoxy)phenyl]-7,8-dihydro-5H-pyrido[3,4-d]pyridazin-4-one]: the IC50 came to 56 nM.

With `O=c1c(Nc2nn(-c3ccc(OC(F)(F)F)cc3)c(=O)c3c2CCC3)cccn1CCCO` [Example 49, 1-[[1-(3-hydroxypropyl)-2-oxo-3-pyridyl]amino]-3-[4-(trifluoromethoxy)phenyl]-6,7-dihydro-5H-cyclopenta[d]pyridazin-4-one], the half-inhibitory concentration (IC50) amounted to 16 nM.

`CNC(=O)COCCn1cccc(Nc2nn(-c3ccc(OC(F)(F)F)cc3)c(=O)c3c2CCC3)c1=O` [Example 107, N-methyl-2-[2-[2-oxo-3-[[4-oxo-3-[4-(trifluoromethoxy)phenyl]-6,7-dihydro-5H-cyclopenta[d]pyridazin-1-yl]amino]-1-pyridyl]ethoxy]acetamide]: the IC50 amounted to 49 nM.

As to `Cn1cc(F)cc(Nc2nn(-c3ccc(OC(F)(F)F)cc3)c(=O)c3c2CCC3)c1=O` [Example 31, 1-[(5-fluoro-1-methyl-2-oxo-3-pyridyl)amino]-3-[4-(trifluoromethoxy)phenyl]-6,7-dihydro-5H-cyclopenta[d]pyridazin-4-one], the IC50 stood at 8 nM.

On to `O=c1c(Nc2nn(-c3ccc(OC(F)(F)F)cc3)c(=O)c3c2CCC3)cccn1CCCN1CCOCC1` [Example 44, 1-[[1-(3-morpholinopropyl)-2-oxo-3-pyridyl]amino]-3-[4-(trifluoromethoxy)phenyl]-6,7-dihydro-5H-cyclopenta[d]pyridazin-4-one], for which the concentration for half-maximal inhibition (IC50) is 28 nM.

For the compound `Cn1cccc(Nc2nn(-c3ccc(OC(F)(F)F)cc3)c(=O)c3c2CCOC3)c1=O` [Example 62, 1-[(1-methyl-2-oxo-3-pyridyl)amino]-3-[4-(trifluoromethoxy)phenyl]-7,8-dihydro-5H-pyrano[3,4-d]pyridazin-4-one], the half-maximal inhibitory concentration (IC50) stood at 186 nM.

`COC(=O)CCCn1cc(Cl)cc(Nc2nn(-c3ccc(OC(F)(F)F)cc3)c(=O)c3c2CCC3)c1=O` [Example 37, methyl 4-[5-chloro-2-oxo-3-[[4-oxo-3-[4-(trifluoromethoxy)phenyl]-6,7-dihydro-5H-cyclopenta[d]pyridazin-1-yl]amino]-1-pyridyl]butanoate]: the IC50 is 20 nM.

Consider `CCOC(=O)C1CN(CCn2cccc(Nc3nn(-c4ccc(OC(F)(F)F)cc4)c(=O)c4c3CCC4)c2=O)CCO1` (stereo not shown) [Example 41, ethyl 4-[2-[2-oxo-3-[[4-oxo-3-[4-(trifluoromethoxy)phenyl]-6,7-dihydro-5H-cyclopenta[d]pyridazin-1-yl]amino]-1-pyridyl]ethyl]morpholine-2-carboxylate], for which the IC50 stood at 60 nM.

Take `CC(=O)N1CCc2c(c(Nc3cccn(C)c3=O)nn(-c3ccc(OC(F)(F)F)cc3)c2=O)C1` [Example 149, 6-Acetyl-4-[(1-methyl-2-oxo-3-pyridyl)amino]-2-[4-(trifluoromethoxy)phenyl]-7,8-dihydro-5H-pyrido[3,4-d]pyridazin-1-one]: the IC50 was 71 nM.

On to `Cn1cccc(Nc2nn(-c3ccc(OC(F)(F)F)cc3)c(=O)c3cccc(F)c23)c1=O` [Example 18, 5-fluoro-4-[(1-methyl-2-oxo-3-pyridyl)amino]-2-[4-(trifluoromethoxy)phenyl]phthalazin-1-one], for which the IC50 stood at 122 nM.
